Publication PMC9401487 (Clinical Cancer Research, 2021)
Entries after “also recorded” stand apart in the source; their conditions may differ.

Tested on: patients with advanced solid tumors
Experiment: Phase I safety and tolerability
Assay type: in vivo, human
[1] = Cohort 1 (N=2), 20 mg BID 17 days + carboplatin
[2] = Cohort 2 (N=7), 20 mg BID 10 days + carboplatin
[3] = Cohort 3 (N=3), 40 mg BID 10 days + carboplatin

SMILES: C[C@@H]1COCCN1c1cc(C2([S@](C)(=N)=O)CC2)nc(-c2cc[nH]c3nccc2-3)n1 [ceralasertib]
- TEAE Abdominal pain, Grade 1–2 [1]: 0 patients, n (%)
- TEAE Abdominal pain, Grade ≥3 [1]: 1 (50) patients, n (%)
- TEAE Alanine aminotransferase increased, Grade 1–2 [1]: 0 patients, n (%)
- TEAE Alanine aminotransferase increased, Grade ≥3 [1]: 0 patients, n (%)
- TEAE Anemia, Grade 1–2 [1]: 1 (50) patients, n (%)
- TEAE Anemia, Grade ≥3 [1]: 0 patients, n (%)
- TEAE Any AE, Grade 1–2 [1]: 1 (50) patients, n (%)
- TEAE Any AE, Grade ≥3 [1]: 1 (50) patients, n (%)
- TEAE Arthralgia, Grade 1–2 [1]: 0 patients, n (%)
- TEAE Arthralgia, Grade ≥3 [1]: 0 patients, n (%)
- TEAE Aspartate aminotransferase increased, Grade 1–2 [1]: 0 patients, n (%)
- TEAE Aspartate aminotransferase increased, Grade ≥3 [1]: 0 patients, n (%)
- TEAE Constipation, Grade 1–2 [1]: 1 (50) patients, n (%)
- TEAE Constipation, Grade ≥3 [1]: 0 patients, n (%)
- TEAE Contusion, Grade 1–2 [1]: 0 patients, n (%)
- TEAE Contusion, Grade ≥3 [1]: 0 patients, n (%)
- TEAE Cough, Grade 1–2 [1]: 0 patients, n (%)
- TEAE Cough, Grade ≥3 [1]: 0 patients, n (%)
- TEAE Decreased appetite, Grade 1–2 [1]: 0 patients, n (%)
- TEAE Decreased appetite, Grade ≥3 [1]: 0 patients, n (%)
- TEAE Diarrhea, Grade 1–2 [1]: 1 (50) patients, n (%)
- TEAE Diarrhea, Grade ≥3 [1]: 0 patients, n (%)
- TEAE Dizziness, Grade 1–2 [1]: 0 patients, n (%)
- TEAE Dizziness, Grade ≥3 [1]: 0 patients, n (%)
- TEAE Dyspnea, Grade 1–2 [1]: 1 (50) patients, n (%)
- TEAE Dyspnea, Grade ≥3 [1]: 0 patients, n (%)
- TEAE Fatigue, Grade 1–2 [1]: 2 (100) patients, n (%)
- TEAE Fatigue, Grade ≥3 [1]: 0 patients, n (%)
- TEAE Hypocalcemia, Grade 1–2 [1]: 0 patients, n (%)
- TEAE Hypocalcemia, Grade ≥3 [1]: 0 patients, n (%)
- TEAE Insomnia, Grade 1–2 [1]: 0 patients, n (%)
- TEAE Insomnia, Grade ≥3 [1]: 0 patients, n (%)
- TEAE Lower respiratory tract infection, Grade 1–2 [1]: 0 patients, n (%)
- TEAE Lower respiratory tract infection, Grade ≥3 [1]: 0 patients, n (%)
- TEAE Nausea, Grade 1–2 [1]: 1 (50) patients, n (%)
- TEAE Nausea, Grade ≥3 [1]: 0 patients, n (%)
- TEAE Neutropenia, Grade 1–2 [1]: 0 patients, n (%)
- TEAE Neutropenia, Grade ≥3 [1]: 1 (50) patients, n (%)
- TEAE Neutrophil count decreased, Grade 1–2 [1]: 0 patients, n (%)
- TEAE Neutrophil count decreased, Grade ≥3 [1]: 0 patients, n (%)
- TEAE Platelet count decreased, Grade 1–2 [1]: 0 patients, n (%)
- TEAE Platelet count decreased, Grade ≥3 [1]: 0 patients, n (%)
- TEAE Pyrexia, Grade 1–2 [1]: 1 (50) patients, n (%)
- TEAE Pyrexia, Grade ≥3 [1]: 0 patients, n (%)
- TEAE Thrombocytopenia, Grade 1–2 [1]: 1 (50) patients, n (%)
- TEAE Thrombocytopenia, Grade ≥3 [1]: 1 (50) patients, n (%)
- TEAE Upper respiratory tract infection, Grade 1–2 [1]: 0 patients, n (%)
- TEAE Upper respiratory tract infection, Grade ≥3 [1]: 0 patients, n (%)
- TEAE Vomiting, Grade 1–2 [1]: 1 (50) patients, n (%)
- TEAE Vomiting, Grade ≥3 [1]: 0 patients, n (%)
- TEAE White blood cell count decreased, Grade 1–2 [1]: 0 patients, n (%)
- TEAE White blood cell count decreased, Grade ≥3 [1]: 1 (50) patients, n (%)
- SRC decision (tolerability) (Cohort 1: 20 mg BID days 4–20 (17 days) + carboplatin AUC5, 2 patients): declared intolerable; also recorded: Not tolerated
- TEAE Abdominal pain, Grade 1–2 [2]: 0 patients, n (%)
- TEAE Abdominal pain, Grade ≥3 [2]: 0 patients, n (%)
- TEAE Alanine aminotransferase increased, Grade 1–2 [2]: 1 (14) patients, n (%)
- TEAE Alanine aminotransferase increased, Grade ≥3 [2]: 0 patients, n (%)
- TEAE Anemia, Grade 1–2 [2]: 2 (29) patients, n (%)
- TEAE Anemia, Grade ≥3 [2]: 2 (29) patients, n (%)
- TEAE Any AE, Grade 1–2 [2]: 2 (29) patients, n (%)
- TEAE Any AE, Grade ≥3 [2]: 5 (71) patients, n (%)
- TEAE Arthralgia, Grade 1–2 [2]: 1 (14) patients, n (%)
- TEAE Arthralgia, Grade ≥3 [2]: 0 patients, n (%)
- TEAE Aspartate aminotransferase increased, Grade 1–2 [2]: 1 (14) patients, n (%)
- TEAE Aspartate aminotransferase increased, Grade ≥3 [2]: 0 patients, n (%)
- TEAE Constipation, Grade 1–2 [2]: 2 (29) patients, n (%)
- TEAE Constipation, Grade ≥3 [2]: 0 patients, n (%)
- TEAE Contusion, Grade 1–2 [2]: 1 (14) patients, n (%)
- TEAE Contusion, Grade ≥3 [2]: 0 patients, n (%)
- TEAE Cough, Grade 1–2 [2]: 5 (71) patients, n (%)
- TEAE Cough, Grade ≥3 [2]: 0 patients, n (%)
- TEAE Decreased appetite, Grade 1–2 [2]: 1 (14) patients, n (%)
- TEAE Decreased appetite, Grade ≥3 [2]: 0 patients, n (%)
- TEAE Diarrhea, Grade 1–2 [2]: 2 (29) patients, n (%)
- TEAE Diarrhea, Grade ≥3 [2]: 0 patients, n (%)
- TEAE Dizziness, Grade 1–2 [2]: 0 patients, n (%)
- TEAE Dizziness, Grade ≥3 [2]: 0 patients, n (%)
- TEAE Dyspnea, Grade 1–2 [2]: 3 (43) patients, n (%)
- TEAE Dyspnea, Grade ≥3 [2]: 0 patients, n (%)
- TEAE Fatigue, Grade 1–2 [2]: 4 (58) patients, n (%)
- TEAE Fatigue, Grade ≥3 [2]: 1 (14) patients, n (%)
- TEAE Hypocalcemia, Grade 1–2 [2]: 0 patients, n (%)
- TEAE Hypocalcemia, Grade ≥3 [2]: 0 patients, n (%)
- TEAE Insomnia, Grade 1–2 [2]: 2 (29) patients, n (%)
- TEAE Insomnia, Grade ≥3 [2]: 0 patients, n (%)
- TEAE Lower respiratory tract infection, Grade 1–2 [2]: 2 (29) patients, n (%)
- TEAE Lower respiratory tract infection, Grade ≥3 [2]: 0 patients, n (%)
- TEAE Nausea, Grade 1–2 [2]: 2 (29) patients, n (%)
- TEAE Nausea, Grade ≥3 [2]: 0 patients, n (%)
- TEAE Neutropenia, Grade 1–2 [2]: 1 (14) patients, n (%)
- TEAE Neutropenia, Grade ≥3 [2]: 0 patients, n (%)
- TEAE Neutrophil count decreased, Grade 1–2 [2]: 0 patients, n (%)
- TEAE Neutrophil count decreased, Grade ≥3 [2]: 0 patients, n (%)
- TEAE Platelet count decreased, Grade 1–2 [2]: 0 patients, n (%)
- TEAE Platelet count decreased, Grade ≥3 [2]: 1 (14) patients, n (%)
- TEAE Pyrexia, Grade 1–2 [2]: 3 (43) patients, n (%)
- TEAE Pyrexia, Grade ≥3 [2]: 0 patients, n (%)
- TEAE Thrombocytopenia, Grade 1–2 [2]: 4 (58) patients, n (%)
- TEAE Thrombocytopenia, Grade ≥3 [2]: 1 (14) patients, n (%)
- TEAE Upper respiratory tract infection, Grade 1–2 [2]: 3 (43) patients, n (%)
- TEAE Upper respiratory tract infection, Grade ≥3 [2]: 0 patients, n (%)
- TEAE Vomiting, Grade 1–2 [2]: 2 (29) patients, n (%)
- TEAE Vomiting, Grade ≥3 [2]: 0 patients, n (%)
- TEAE White blood cell count decreased, Grade 1–2 [2]: 0 patients, n (%)
- TEAE White blood cell count decreased, Grade ≥3 [2]: 0 patients, n (%)
- TEAE Abdominal pain, Grade 1–2 [3]: 0 patients, n (%)
- TEAE Abdominal pain, Grade ≥3 [3]: 0 patients, n (%)
- TEAE Alanine aminotransferase increased, Grade 1–2 [3]: 0 patients, n (%)
- TEAE Alanine aminotransferase increased, Grade ≥3 [3]: 0 patients, n (%)
- TEAE Anemia, Grade 1–2 [3]: 1 (33) patients, n (%)
